Laboratory results taken from the supplement of paper PMC10307832.

Assays:
Test in all cases: relative viability (nuclei count vs DMSO), 5 days (fraction); higher = more cells survive
Gemcitabine + Olaparib = compound: Nc1ccn([C@@H]2O[C@H](CO)[C@@H](O)C2(F)F)c(=O)n1 [Gemcitabine] + O=C(c1cc(Cc2n[nH]c(=O)c3ccccc23)ccc1F)N1CCN(C(=O)C2CC2)CC1 [Olaparib] (partner 8 µM)
How it was run: (§1)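 Lung cancer cell lines in 1536-well plates were dosed by pin tool the day after seeding, either with one drug alone or with a fixed anchor-drug dose plus five library-drug doses (not always all listed) in √10 steps. After 5 days, cells were fixed and their nuclei stained in one step (final 0.05% Triton X-100, 1% formaldehyde, 1 ug/ml Hoechst), then counted on 4× images. Relative viability is the nuclei count in treated wells divided by that in vehicle wells. Values are medians of duplicate plates.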

Gemcitabine + Bortezomib = compound: Nc1ccn([C@@H]2O[C@H](CO)[C@@H](O)C2(F)F)c(=O)n1 [Gemcitabine] + CC(C)C[C@H](NC(=O)[C@H](Cc1ccccc1)NC(=O)c1cnccn1)B(O)O [Bortezomib] (partner 0.002 µM)
How it was run: as §1

Gemcitabine + Pemetrexed = compound: Nc1ccn([C@@H]2O[C@H](CO)[C@@H](O)C2(F)F)c(=O)n1 [Gemcitabine] + Nc1nc2[nH]cc(CCc3ccc(C(=O)N[C@@H](CCC(=O)O)C(=O)O)cc3)c2c(=O)[nH]1 [Pemetrexed] (partner 0.2 µM)
How it was run: as §1

Gemcitabine + Alpelisib = compound: Nc1ccn([C@@H]2O[C@H](CO)[C@@H](O)C2(F)F)c(=O)n1 [Gemcitabine] + Cc1nc(NC(=O)N2CCC[C@H]2C(N)=O)sc1-c1ccnc(C(C)(C)C(F)(F)F)c1 [Alpelisib] (partner 2 µM)
How it was run: as §1

Row | Cell Line | relative viability (Gemcitabine + Olaparib; first compound 0.001 µM) | relative viability (Gemcitabine + Olaparib; first compound 0.003162 µM) | relative viability (Gemcitabine + Olaparib; first compound 0.01 µM) | relative viability (Gemcitabine + Olaparib; first compound 0.03162 µM) | relative viability (Gemcitabine + Olaparib; first compound 0.1 µM) | relative viability (Gemcitabine + Bortezomib; first compound 0.001 µM) | relative viability (Gemcitabine + Bortezomib; first compound 0.003162 µM) | relative viability (Gemcitabine + Bortezomib; first compound 0.01 µM) | relative viability (Gemcitabine + Bortezomib; first compound 0.03162 µM) | relative viability (Gemcitabine + Bortezomib; first compound 0.1 µM) | relative viability (Gemcitabine + Pemetrexed; first compound 0.001 µM) | relative viability (Gemcitabine + Pemetrexed; first compound 0.003162 µM) | relative viability (Gemcitabine + Pemetrexed; first compound 0.01 µM) | relative viability (Gemcitabine + Pemetrexed; first compound 0.03162 µM) | relative viability (Gemcitabine + Pemetrexed; first compound 0.1 µM) | relative viability (Gemcitabine + Alpelisib; first compound 0.001 µM) | relative viability (Gemcitabine + Alpelisib; first compound 0.003162 µM) | relative viability (Gemcitabine + Alpelisib; first compound 0.01 µM) | relative viability (Gemcitabine + Alpelisib; first compound 0.03162 µM) | relative viability (Gemcitabine + Alpelisib; first compound 0.1 µM)
1 | HCC-44 | 0.932 | 0.988 | 0.931 | 0.704 | 0.391 | 0.895 | 0.874 | 0.701 | 0.393 | 0.131 | 0.634 | 0.68 | 0.66 | 0.632 | 0.63 | 0.808 | 0.791 | 0.636 | 0.238 | 0.122
2 | HCC-78 | 0.715 | 0.335 | 0.213 | 0.21 | 0.181 | 0.593 | 0.314 | 0.335 | 0.302 | 0.193 | 0.92 | 0.879 | 0.895 | 0.9 | 0.896 | 0.278 | 0.241 | 0.12 | 0.157 | 0.13
3 | HCC-366 | 0.332 | 0.389 | 0.124 | 0.0348 | 0.0152 | 1.05 | 1.01 | 0.425 | 0.0213 | 0.0123 | 0.155 | 0.212 | 0.189 | 0.0374 | 0.0257 | 0.516 | 0.359 | 0.0565 | 0.0184 | 0.0102
4 | HCC-827 | 0.673 | 0.434 | 0.384 | 0.0193 | 0.162 | 0.964 | 1.08 | 0.875 | 0.607 | 0.427 | 0.301 | 0.224 | 0.248 | 0.176 | 0.145 | 0.895 | 0.48 | 0.56 | 0.391 | 0.167
5 | HOP-62 | 0.516 | 0.387 | 0.0703 | 0.0534 | 0.0449 | 0.506 | 0.39 | 0.209 | 0.0446 | 0.0459 | 0.323 | 0.299 | 0.15 | 0.0689 | 0.0761 | 0.829 | 0.572 | 0.0893 | 0.0529 | 0.061
6 | IA-LM | 0.854 | 0.788 | 0.797 | 0.0888 | 0.0689 | 0.882 | 0.805 | 0.651 | 0.0803 | 0.0498 |  |  |  |  |  | 0.789 | 0.644 | 0.744 | 0.0658 | 0.0561
7 | LK-2 | 0.878 | 0.722 | 0.386 | 0.153 | 0.148 |  |  |  |  |  | 0.298 | 0.321 | 0.238 | 0.14 | 0.114 | 1.23 |  | 0.447 | 0.242 | 0.251
8 | NCI-H358 | 0.689 | 0.321 | 0.146 | 0.101 | 0.0993 |  |  |  |  |  | 0.145 | 0.148 | 0.146 | 0.118 | 0.108 | 0.64 | 0.236 | 0.154 | 0.175 | 0.151
9 | NCI-H727 | 0.816 | 0.592 | 0.35 | 0.464 | 0.426 | 0.841 | 0.405 | 0.241 | 0.258 | 0.287 |  |  |  |  |  | 0.412 | 0.311 | 0.199 | 0.221 | 0.212
10 | NCI-H1299 | 0.984 | 1.03 | 0.962 | 1 | 0.937 | 1.03 | 1.07 | 1 | 0.995 | 1.07 |  |  |  |  |  | 1.04 | 1.1 | 1.03 | 1.05 | 1.09
11 | NCI-H1395 | 0.438 | 0.452 | 0.423 | 0.351 | 0.34 |  |  |  |  |  | 0.91 | 0.622 | 0.335 | 0.296 | 0.312 | 1.19 | 0.815 | 0.459 | 0.369 | 0.406
12 | NCI-H1563 |  |  |  |  |  | 0.93 | 0.965 | 0.851 | 0.608 | 0.537 | 0.748 | 0.852 | 0.833 | 0.407 | 0.414 | 0.99 | 0.94 | 0.635 | 0.651 | 0.428
13 | NCI-H1648 | 1.01 | 0.659 | 0.497 | 0.335 | 0.227 |  |  |  |  |  | 0.836 | 0.64 | 0.628 | 0.339 | 0.349 |  |  |  |  | 
14 | NCI-H1650 | 0.886 | 0.522 | 0.479 | 0.12 | 0.122 | 0.189 | 0.18 | 0.175 | 0.147 | 0.133 | 0.362 | 0.326 | 0.305 | 0.157 | 0.172 |  |  |  |  | 
15 | NCI-H1703 | 0.359 | 0.266 | 0.0911 | 0.119 | 0.105 | 0.306 | 0.209 | 0.144 | 0.11 | 0.111 |  |  |  |  |  | 0.274 | 0.178 | 0.107 | 0.113 | 0.117
16 | NCI-H1793 | 0.807 | 0.93 | 0.159 | 0.137 | 0.105 |  |  |  |  |  | 1.09 | 0.98 | 0.406 | 0.139 | 0.141 | 0.706 | 0.594 | 0.354 | 0.156 | 0.147
17 | NCI-H1944 | 0.459 | 0.469 | 0.358 | 0.21 | 0.134 |  |  |  |  |  | 0.586 | 0.601 | 0.554 | 0.254 | 0.112 | 0.855 | 0.845 | 0.783 | 0.366 | 0.14
18 | NCI-H2170 | 0.591 | 0.636 | 0.258 | 0.091 | 0.104 |  |  |  |  |  | 0.289 | 0.259 | 0.314 | 0.127 | 0.119 | 0.85 | 0.767 | 0.412 | 0.181 | 0.169
19 | NCI-H2342 | 0.457 | 0.401 | 0.277 | 0.244 | 0.259 |  |  |  |  |  | 0.821 | 0.698 | 0.748 | 0.412 | 0.337 |  |  |  |  | 
20 | SK-MES-1 | 0.587 | 0.22 | 0.165 | 0.199 | 0.161 |  |  |  |  |  | 0.804 | 0.271 | 0.2 | 0.201 | 0.173 | 0.658 | 0.454 | 0.21 | 0.189 | 0.183
21 | SW 900 | 0.837 | 0.543 | 0.165 | 0.168 | 0.134 |  |  |  |  |  | 0.476 | 0.401 | 0.171 | 0.124 | 0.109 |  |  |  |  | 
